# Paper PMC5472784, “Pyrazinamide and derivatives block ethylene biosynthesis by inhibiting ACC oxidase” (Nature Communications, 2017)
# How the values were obtained:
# [1] = tested on: ACC conjugating enzymes (ACC and M-ACC content of eto1-2 seedlings); test: Quantification of ACC and M-ACC; format: in vivo, Arabidopsis thaliana; conditions: 10-day-old green seedlings, 50 μM PZA
# Experimental: 10-day-old green seedlings of eto1-2 under different treatments were ground in liquid nitrogen, and extracted with 5% SSA (sulfosalicylic acid). For ACC measurement, the extract was oxidized with 2 mM HgCl2, 0.33% NaOCl and 0.2 M NaOH, reacted on ice for 4 min, and then the ethylene production was determined with GC-FID. For M-ACC measurement, the extract was hydrolyzed using 2 M HCl followed by oxidization and ethylene production determination, and the content of ACC and M-ACC were calculated based on the ethylene production and efficiency of oxidization.
# [2] = tested on: Arabidopsis etiolated seedlings (Col-0, eto1-2, ctr1-1, ein2-5); test: Ethylene response phenotype of 3-day-old etiolated seedlings (hypocotyl and root length, root hairs, root cells); format: in vivo, Arabidopsis thaliana
# [3] = tested on: auxin response; test: Auxin response, pDR5::GFP reporter lines; format: in vivo, Arabidopsis thaliana; conditions: pDR5::GFP/Col-0 and pDR5::GFP/ein2-5
# Experimental: (§1) GFP fluorescence and propidium iodide staining signals in roots were detected using Zeiss LSM-710 microscope. All seedlings were grown in the dark for 3 days on MS medium supplemented with the indicated treatments, and then mounted on glass slides and observed in water. For propidium iodide staining, roots were visualized in the presence of propidium iodide without fixation. ImageJ was used to process images and to quantify the fluorescent intensity of GFP.
# [4] = tested on: Arabidopsis PSB-D suspension cultured cells; test: Wayne Test, conversion of PZA to POA in suspension cultured cells; format: cell-based, Arabidopsis thaliana; conditions: 500 μM PZA, 24 h, abolished in boiled cells
# Experimental: 500 μM PZA were added to 50 ml Arabidopsis suspension cell log phase cultures or boiled cultures and incubated at 27 °C for 24 h. 1 ml cell culture was collected after centrifugation, and 10 μl 2% ferrous sulfate was added to the supernatant for colour development. The absorbance at 450 nm of each samples was measured by spectrophotometer and the POA concentration was calculated according to the POA-Abs450 standard curve drawn using the reference solutions of POA.
# Arabidopsis suspension cells were cultured in liquid MS medium in the presence or absence of 500 μM PZA for 24 h. The culture supernatant was collected by centrifugation and alkalized (pH>11) using sodium hydroxide (NaOH), followed by extracting with ethyl acetate twice to eliminate lipid-soluble molecules. The aqueous phase was collected and acidified (pH<2) using hydrochloric acid (HCl). The protonated cultures were extracted with ethyl acetate five times to enrich POA. The resulting samples were concentrated by reduced pressure distillation and analysed using a Fourier Transform Ion Cyclotron Resonance Mass Spectrometer (Solarix XR, Bruker).
# [5] = tested on: ethylene production of Arabidopsis seedlings; test: Measurement of ethylene production of seedlings (GC-FID); format: in vivo, Arabidopsis thaliana; conditions: etiolated and green seedlings, 50 μM
# Experimental: Ethylene production was determined as follows: 30 3-day-old etiolated or 5-day-old green seedlings of Col-0, eto1-2 or other mutants were selected randomly and sealed in a 30 ml vial containing 3 ml liquid MS medium supplemented with indicated treatments. The vial was sealed with a rubber stopper for 24 h at 22 °C prior to ethylene sampling. A 250 μl sample of the headspace gas was withdrawn using a gas-tight syringe from each chamber through the septum stopper, and injected into a gas chromatograph (Agilent 6890NGC, Agilent Technologies, USA) that was equipped with a HP-PLOTQ column (40 m × 530 μm × 40 μm) and a flame ionization detector (FID)[44]. Separations were carried out at 60 °C using N2 as the carrier gas. The area of the ethylene peak was integrated with Agilent Chemstation and results were expressed as the average relative ethylene production (%) of each treatment.
# [6] = tested on: anthocyanin accumulation; test: Anthocyanin measurement; format: in vivo, Arabidopsis thaliana; conditions: 6-day-old Col-0 green seedlings
# Excerpt: 6-day-old green seedlings grown on MS medium supplemented with different concentration of PZA were sampled for anthocyanin measurement by spectrophotometry. The content of anthocyanin is presented as (A535−A650)/g.
# [7] = tested on: GA response; test: GA response, pRGA::GFP-RGA reporter seedlings; format: in vivo, Arabidopsis thaliana; conditions: pRGA::GFP-RGA seedlings, 20, 50, 100 μM PZA
# Experimental: as §1
# [8] = biological target: AtACO2 (Arabidopsis thaliana, UniProt Q41931); test: ACO enzymatic activity assay and kinetic analysis (ethylene by GC-FID); format: biochemical; conditions: even at a high concentration (2 mM)
# Sequence of AtACO2 (Q41931 1-303): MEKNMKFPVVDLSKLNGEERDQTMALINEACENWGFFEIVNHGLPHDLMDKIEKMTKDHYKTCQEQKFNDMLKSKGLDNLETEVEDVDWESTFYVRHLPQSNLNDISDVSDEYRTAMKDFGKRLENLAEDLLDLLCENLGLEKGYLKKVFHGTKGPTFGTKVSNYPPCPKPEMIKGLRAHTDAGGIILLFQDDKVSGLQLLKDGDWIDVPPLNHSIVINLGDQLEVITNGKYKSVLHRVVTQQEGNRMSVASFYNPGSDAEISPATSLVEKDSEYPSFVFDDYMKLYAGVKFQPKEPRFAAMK
# [9] = biological target: T1, AtNIC3 (Arabidopsis thaliana, UniProt Q9FMX8); test: In vitro PZase assay (TLC); format: biochemical; conditions: 5 mM PZA, 12 h, 30 °C
# T1 sequence (Q9FMX8 1-198): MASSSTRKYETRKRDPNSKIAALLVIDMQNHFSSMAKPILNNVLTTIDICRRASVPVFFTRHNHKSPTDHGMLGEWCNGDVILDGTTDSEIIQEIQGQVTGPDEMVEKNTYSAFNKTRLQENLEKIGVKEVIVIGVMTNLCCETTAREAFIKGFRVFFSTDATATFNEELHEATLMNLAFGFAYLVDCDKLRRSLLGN
# Excerpt: (§2) Silica TLC plates were developed in dichloromethane/methanol (3:1), and analysed with ultraviolet.
# [10] = tested on: Arabidopsis PSB-D suspension cultured cells; test: Ethylene production of suspension cultured cells; format: cell-based, Arabidopsis thaliana
# [11] = biological target: T2, AtNIC2 (Arabidopsis thaliana, UniProt Q9FMX7); test: In vitro PZase assay (TLC, NMR); format: biochemical; conditions: 5 mM PZA, 12 h, 30 °C
# T2 sequence (Q9FMX7 1-198): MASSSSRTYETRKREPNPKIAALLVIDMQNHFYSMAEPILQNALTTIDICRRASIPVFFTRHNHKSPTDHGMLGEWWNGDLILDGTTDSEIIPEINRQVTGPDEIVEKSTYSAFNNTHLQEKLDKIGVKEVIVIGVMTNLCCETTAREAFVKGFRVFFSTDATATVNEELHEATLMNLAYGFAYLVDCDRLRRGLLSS
# Excerpt: as §2
# For NMR analysis, the AtNIC2-catalysed PZase reaction was acidified using HCl and extracted using ethyl acetate. The solvent was removed by reduced pressure distillation. The sample was then re-dissolved in dimethyl sulfoxide-d6 and analysed using Bruker-400 MHz NMR (ARX400, Bruker).
# [12] = tested on: EIN3; test: EIN3 protein level (Western blot) and pEBS:GUS staining; format: in vivo, Arabidopsis thaliana; conditions: 1 μM ACC, 50, 100 and 200 μM PZA
structure (smiles),measurement,setting,value
"NC(=O)c1cnccn1 [PZA, pyrazinamide]",ACC level in eto1-2,[1],slight increase
same,M-ACC level in eto1-2,[1],almost no change
same,cell elongation in the root maturation zone of eto1-2,[2]; 50 μM,promoted cell elongation
same,root hair formation of eto1-2,[2]; 50 μM,effectively suppressed
same,size of the cell division zone of eto1-2 root,[2]; 50 μM,little effect
same,short-root and short-hypocotyl phenotype of eto1-2,"[2]; 3-day-old etiolated eto1-2 seedlings, MS medium with compound (50 μM shown)",partially suppressed
same,phenotype of ethylene signalling mutants ctr1-1 and ein2-5,[2]; 3-day-old etiolated seedlings,little effect
same,ACC-induced short hypocotyl and root phenotype,"[2]; Col-0, 1 μM ACC, 50 or 100 μM PZA",significantly suppressed
same,ethylene-induced phenotype,"[2]; Col-0, 2 p.p.m. ethylene, 50 or 100 μM PZA",no effect
same,lengths of hypocotyls and roots of wild-type (Col-0),"[2]; etiolated seedlings, increasing doses (1-100 μM)",slightly promoted
same,effect on auxin response,[3],EIN2-dependent manner
same,conversion into POA in PSB-D culture,[4],converted into POA
same,ethylene production of eto1-2,[5],effectively inhibited
same,effect on anthocyanin accumulation,[6],virtually no effect
same,effect on GA response,[7],virtually no effect
same,inhibition of the activity of AtACO2,[8],no inhibition
same,conversion of PZA into POA by AtNIC3,[9],able to convert PZA into POA
same,ethylene production in suspension cultured cells,[10],inhibited
same,conversion of PZA into POA by AtNIC2,[11],able to convert PZA into POA
same,ACC-induced EIN3 protein accumulation and transcriptional activation of target promoter,[12],inhibited
